For series [1], the system named is UUO-induced renal fibrosis. Briefly: UUO-induced renal fibrosis in mice, H&E staining of kidney tissues. Format: in vivo, C57 mice. The note with it: 10 days. The source says: (§1) Modeling a UUO model mouse: C57 mice (male, 8 weeks old, weighing 20-25 g) were purchased from Zhejiang Vital River Laboratory Animal Technology Co., Ltd. After anesthesia, a 1-2 cm incision was made in the left kidney region of the abdomen, and the intestinal tract was carefully removed to expose the ureter. The ureter was ligated with double lines and cut off at the middle position of the double-line ligation. The intestinal tract was recovered, and the incision was stitched.
(§2) All animals were administered orally on the day of surgery. Animals in the sham group and vehicle group were administered a test drug vehicle (5% DMSO+5% Tween80+20% PEG400+70% H2O). All administration solutions were freshly prepared before use. The experiment ended 10 days after the administration.
(§3) The preparation method for the positive drug included weighing pirfenidone into a mortar, adding a small amount of 0.5% CMC-Na, grinding the mixture fully and uniformly, supplementing the mixture with the remaining 0.5% CMC-Na, and mixing well for use.
(§4) At the end of the experiment, the left kidney was taken and placed in 4% PFA for fixation. The kidney was conventionally sectioned and stained 24 h after the fixation.

In series [2] the test system is F4/80 (macrophages). Put plainly: UUO-induced renal fibrosis in mice, F4/80 immunohistochemical staining of kidney tissues. Type of series: in vivo, C57 mice. The note with it: 10 days.
Excerpt: as §1, §2, §3, §4

Series [3] deals with α-SMA. Briefly: UUO-induced renal fibrosis in mice, α-SMA immunohistochemical staining of kidney tissues. Type of series: in vivo, C57 mice.
Excerpt: as §1, §2, §3, §4

Series [4] concerns the target T1, EPHA6 (Homo sapiens, UniProt Q9UF33).
T1 sequence (Q9UF33 23-1036): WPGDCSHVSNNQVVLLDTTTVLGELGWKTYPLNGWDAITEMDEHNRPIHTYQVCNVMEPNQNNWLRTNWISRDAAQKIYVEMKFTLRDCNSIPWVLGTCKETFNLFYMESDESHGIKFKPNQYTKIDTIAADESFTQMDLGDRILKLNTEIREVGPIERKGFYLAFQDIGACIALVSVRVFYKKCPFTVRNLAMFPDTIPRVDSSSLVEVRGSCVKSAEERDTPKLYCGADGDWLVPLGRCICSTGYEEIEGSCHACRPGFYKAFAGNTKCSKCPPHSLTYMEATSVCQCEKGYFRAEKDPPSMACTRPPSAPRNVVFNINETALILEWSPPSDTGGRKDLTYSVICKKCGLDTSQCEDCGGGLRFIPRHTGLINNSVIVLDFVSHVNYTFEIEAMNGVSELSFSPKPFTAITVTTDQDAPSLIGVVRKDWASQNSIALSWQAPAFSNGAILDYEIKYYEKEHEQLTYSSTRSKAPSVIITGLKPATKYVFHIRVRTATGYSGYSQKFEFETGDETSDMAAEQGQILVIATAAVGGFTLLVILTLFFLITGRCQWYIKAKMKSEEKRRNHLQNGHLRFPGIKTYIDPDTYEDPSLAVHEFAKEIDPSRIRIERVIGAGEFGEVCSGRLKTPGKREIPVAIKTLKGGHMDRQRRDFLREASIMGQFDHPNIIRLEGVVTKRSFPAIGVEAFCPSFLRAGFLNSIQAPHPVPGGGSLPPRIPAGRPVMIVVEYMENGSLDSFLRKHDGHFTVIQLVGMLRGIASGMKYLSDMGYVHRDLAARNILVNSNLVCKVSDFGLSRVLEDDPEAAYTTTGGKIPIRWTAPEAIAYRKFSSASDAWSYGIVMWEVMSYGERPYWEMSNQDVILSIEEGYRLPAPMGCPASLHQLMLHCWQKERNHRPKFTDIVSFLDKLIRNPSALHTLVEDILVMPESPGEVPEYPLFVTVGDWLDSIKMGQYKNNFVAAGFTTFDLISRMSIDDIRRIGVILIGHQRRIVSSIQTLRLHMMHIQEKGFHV
Briefly: EPHA6 enzyme activity assay (HTRF). Format: biochemical. The note with it: ATP 25 μM; read-out: IC50 against EPHA6. As for the experimental part: Replicate wells were set for the assay. 2× kinase solution was prepared with 1× kinase reaction buffer (5× buffer, 5 mM MgCl2, 1 mM DTT, H2O, and 1 mM MnCl2). 2.5 μL of EPHA6 (0.5 nM, 08-125, Carna) solution was transferred to a 384 reaction plate.
In general terms: Time-resolved FRET reads energy transfer from a long-lived donor to a nearby acceptor.

In series [5] the test system is UUO-induced renal fibrosis. Briefly: UUO-induced renal fibrosis in mice, Masson staining of collagen fibers in kidney tissues. Type of series: in vivo, C57 mice.
Excerpt: as §1, §2, §3, §4

Series [6] can be described thus: Relative body weight change in UUO model mice. Format: in vivo, C57 mice. To be noted: Group 7, 250 mg/kg BID P.O.
Excerpt: as §1, §2, §3
Relative body weight change=body weight on day n/body weight on day 0×100%

In the case of `Cc1c(C#Cc2cnc3ccc(N4CCC(O)CC4)nn23)cccc1C(=O)Nc1cc(Cl)cc(C(F)(F)F)c1` [compound 1, N-(3-chloro-5-(trifluoromethyl)phenyl)-3-((6-(4-hydroxypiperidin-1-yl)imidazo[1,2-b]pyridazin-3-yl)ethynyl)-2-methylbenzamide], in series [1] (compound 1 dose groups (3, 10, 30, 100 mg/kg QD P.O)), the “H&E staining of kidney tissue, compared with the vehicle group” value is “reduced tubular atrophy, a looser glomerular structure, and no significant thickening of tubular basement membrane”. The “expression levels of macrophages (F4/80) compared with the vehicle group” value was “significantly reduced” in series [2] (30 mpk and 100 mpk QD P.O); “reduced expression levels of macrophages” in series [2] (each dose group (3, 10, 30, 100 mpk QD P.O)). In addition, the “α-SMA positive area compared with the vehicle group” value in series [3] (3 mpk QD P.O, 10 days, P<0.05 (FIG. 4B)) is listed as “significantly reduced”. The “levels of α-SMA compared with the vehicle group” value in series [3] (10 mpk, 30 mpk and 100 mpk QD P.O, 10 days (FIG. 4B)) is reported as “significantly reduced”. Moreover, in series [4], the IC50 (usually the point on the concentration scale where inhibition reaches its midpoint) is 0.0128 µM. Also, the “Masson staining positive area, quantitative analysis” value in series [5] (3 mpk QD P.O, 10 days (FIG. 3B)) is given as “significantly reduce the Masson staining positive area”. The “Masson staining, collagen deposition in the renal tubular spaces” value in series [5] (3 mpk, 10 mpk, 30 mpk and 100 mpk groups, QD P.O, 10 days (FIG. 3A)) is listed as “significant effect in relieving the collagen deposition”. In addition, the “onset dose for treating renal fibrosis” value in series [5] (UUO mice, QD P.O, 10 days) was determined as 3 mg/kg.

For the compound `Cc1ccc(=O)n(-c2ccccc2)c1` [pirfenidone], the “H&E staining of kidney tissue, compared with the vehicle group” value in series [1] (250 mg/kg BID P.O) is “a looser glomerular structure and no significant material deposition in the renal tubular spaces”. The “Relative body weight change” value in series [6] (day 0) is 100 ± 0.00%; in series [6] (day 1) it was 90.41 ± 0.25%; in series [6] (day 2), 89.78 ± 0.81%; in series [6] (day 3), 88.90 ± 0.75%; in series [6] (day 4), 90.19 ± 0.85%; in series [6] (day 5), 91.53 ± 0.62%. The “Relative body weight change” value in series [6] (day 6) was determined as 91.83 ± 0.85%; in series [6] (day 7), 89.72 ± 0.68%; in series [6] (day 8), 90.68 ± 0.85%; in series [6] (day 9), 93.04 ± 0.66%; in series [6] (day 10), 96.16 ± 1.10%.

These data come from US20260216184A1 (SHENZHEN NEWDEL BIOTECH CO., LTD., priority 2023, published 2026).
